Tests used:
[1] = system: dd mice; assay: Acute toxicity test (minimum lethal dose); format: in vivo; conditions: po, mortality rate after seven days
Experimental: A test compound was orally administered to dd mice [male, body weight: 20±1 g (n=3)]. Mortality rate after seven days was measured to determine minimum lethal dose (MLD).

[2] = system: MIN6 cell; assay: Insulin secretion promoting activity for cultured β cells (MIN6); format: cell-based
Experimental: Culture of the MIN6 cells above and insulin secretion test utilizing the MIN6 cells were performed according to the methods described in Diabetologia, vol. 36, pp. 1139–1145, 1993. The effect of a compound on the insulin secretion in the presence of 14.5 mmol/L glucose was determined by measuring insulin amounts in cell culture supernatants collected as follows. MIN6 cells cultured on a 24-well plate were washed twice by using 1 mL of Buffer A (119 mmol/L sodium chloride, 4.74 mmol/L potassium chloride, 2.54 mmol/L calcium chloride, 1.19 mmol/L magnesium sulfate, 1.19 mmol/L potassium dihydrogenphosphate, 10 mmol/L 2-[4-(2-hydroxyethyl)-1-piperazinyl]ethanesulfonic acid, 0.1% bovine serum albumin, pH 7.3) containing 2 mmol/L glucose, and then were incubated in 1 mL of Buffer A containing 2 mmol/L glucose at 37° C. for 45 minutes. After the incubation, the culture supernatant was changed to Buffer A (0.9 mL) containing a test compound at various concentrations and 2 mmol/L glucose, and the cells were further incubated at 37° C. for 15 minutes. The MIN6 cells were stimulated with glucose by the addition of Buffer A (0.1 mL) containing 127 mmol/L glucose to the culture (final glucose concentration: 14.5 mmol/L). After the stimulation, the cells were further incubated at 37° C. for 45 minutes, and then the culture supernatant was collected.
Separately, the effect of a compound on the insulin secretion in the presence of 5 mmol/L glucose was determined by measuring insulin amounts in cell culture supernatants collected as follows. MIN6 cells cultured on a 24-well plate were washed twice by using 1 mL of Buffer A containing 5 mmol/L glucose, and then the culture supernatant was changed to Buffer A (0.9 mL) containing a test compound at various concentrations and 5 mmol/L glucose. Then, the cells were incubated at 37° C. for 45 minutes (final glucose concentration: 5 mmol/L), and the culture supernatant was collected.
After the culture supernatant was diluted with a phosphate buffer containing 1% bovine serum albumin, 0.1% Tween 20, 0.12% disodium ethylenediaminetetraacetate (EDTA) and 0.1% sodium azide, antibody-reactive insulin secreted in the culture supernatant was quantified by enzyme immunoassay or radio immunoassay. The insulin level was indicated as the amount of human insulin (ng/mL). The results are indicated as averages (avg) for 3 to 4 samples with standard erroe values (se).

[3] = system: Wistar male rats; assay: Hyperglycemia suppressing action after glucose loading in normal rats; format: in vivo; conditions: 14 mg/kg po
Experimental: Wistar male rats (body weight: about 280 g) were used for the experiment after starvation for 24 hours. A test compound was orally administered to the rats 15 minutes before oral administration of glucose (2 g/kg). Blood was collected from a tail vein before the administration of the test compound and 30, 60, 120 and 180 minutes after the glucose loading, and blood glucose level was measured by using a simplified blood sugar level measuring apparatus.

[4] = in the presence of 5 mmol/L of glucose, drug concentration 10 (mmol/L [sic]), None = 51.2
[5] = in the presence of 14.5 mmol/L of glucose, drug concentration 1.0 μmol/L, None = 148.4

Row | SMILES | melting point [°C] | Insulin secretion amount (ng/ml) avg [2, 4] [ng/mL] | Insulin secretion amount (ng/ml) avg [2, 5] [ng/mL] | also measured
1 | CCCN1C(=O)N2C[C@@H](Cc3ccncc3)N=C2c2[nH]c(C3CCCC3)nc21 [Compound 2, (R)-2-Cyclopentyl-7,8-dihydro-8-(4-picolyl)-4-(n-propyl)-1H-imidazo[2,1-i]purin-5(4H)-one D-tartrate] |  | 86.3 | 203.6 | minimum lethal dose (MLD) [1]: not less than 500 mg/kg; Plasma Glucose Concentration ([3]; 30 minutes after glucose loading (2 g/kg), Control 169 ± 7.2): 144 ± 6.6 mg/dL; Plasma Glucose Concentration ([3]; 60 minutes after glucose loading (2 g/kg), Control 167 ± 8.0): 156 ± 5.7 mg/dL; Plasma Glucose Concentration ([3]; 120 minutes after glucose loading (2 g/kg), Control 93 ± 4.5): 90 ± 5.7 mg/dL; Plasma Glucose Concentration ([3]; 180 minutes after glucose loading (2 g/kg), Control 83 ± 3.7): 82 ± 4.2 mg/dL; Plasma Glucose Concentration ([3]; time 0 (before administration of the test compound), Control 82 ± 3.7): 91 ± 2.1 mg/dL
2 | CCCN1C(=O)N2C[C@@H](Cc3ccccc3)N=C2c2c1nc(Br)n2Cc1ccccc1 [Compound 35, (R)-1,8-Dibenzyl-2-bromo-7,8-dihydro-4-(n-propyl)-1H-imidazo[2,1-i]purin-5(4H)-one] | 200 to 206 |  |  | 
3 | CCCN1C(=O)N2C[C@@H](Cc3ccccc3)N=C2c2c1nc(SC)n2COC [Compound 36, (R)-8-Benzyl-7,8-dihydro-1-methoxymethyl-2-methylthio-4-(n-propyl)-1H-imidazo[2,1-i]purin-5(4H)-one] | 110 to 112 |  |  | 
4 | CCCN1C(=O)N2C[C@@H](Cc3ccccc3)N=C2c2c1nc(C=O)n2Cc1ccccc1 [Compound 41, (R)-1,8-Dibenzyl-2-formyl-7,8-dihydro-4-(n-propyl)-1H-imidazo[2,1-i]purin-5(4H)-one] | 184 to 185 |  |  | 

Now from value to compound, other results behind:

Row | melting point [°C] | SMILES | Insulin secretion amount (ng/ml) avg [2, 4] [ng/mL] | Insulin secretion amount (ng/ml) avg [2, 5] [ng/mL] | also measured
5 | 112 to 113 | CCCN1C(=O)N2C[C@@H](Cc3ccccc3)N=C2c2c1nc(CCl)n2Cc1ccccc1 [Compound 42, (R)-1,8-Dibenzyl-2-chloromethyl-7,8-dihydro-4-(n-propyl)-1H-imidazo[2,1-i]purin-5(4H)-one] |  |  | 
6 | 220 to 222 | CCOC1=Nc2nc(C(C)(C)C)[nH]c2C2=N[C@H](Cc3ccccc3)CN12 [Compound 70, (R)-8-Benzyl-2-(tert-butyl)-5-ethoxy-7,8-dihydro-1H-imidazo[2,1-i]purine] | 57.0 | 174.9 | 
7 | 171 to 174 | CSC1=Nc2nc(C(C)(C)C)[nH]c2C2=N[C@H](Cc3ccccc3)CN12 [Compound 73, (R)-8-Benzyl-2-(tert-butyl)-7,8-dihydro-5-methylthio-1H-imidazo[2,1-i]purine] | 63.3 | 176.6 | 

Reference: US7005430B2, “Fused purine derivatives” (Kyowa Hakko Kogyo Co., Ltd., priority 1999, dated 2006)
